Assay results reported in patent US6683103B2, “Sulfonamides for treatment of endothelin-mediated disorders” (Texas Biotechnology Corporation, priority 1997, dated 2004).
Where two headings read alike, the source gives them in different places.

What was measured:
human ETA receptors = target: T1, human ETA receptors (Homo sapiens, UniProt P25101); experiment: Binding Test #1: inhibition of 125I-ET-1 binding to ETA receptors (TE 671 cell membranes); conditions: read-out: ETA
T1 construct: endogenous in cells; host or cells: TE 671 cells (ATCC HTB 139)
T1 sequence (P25101 21-427): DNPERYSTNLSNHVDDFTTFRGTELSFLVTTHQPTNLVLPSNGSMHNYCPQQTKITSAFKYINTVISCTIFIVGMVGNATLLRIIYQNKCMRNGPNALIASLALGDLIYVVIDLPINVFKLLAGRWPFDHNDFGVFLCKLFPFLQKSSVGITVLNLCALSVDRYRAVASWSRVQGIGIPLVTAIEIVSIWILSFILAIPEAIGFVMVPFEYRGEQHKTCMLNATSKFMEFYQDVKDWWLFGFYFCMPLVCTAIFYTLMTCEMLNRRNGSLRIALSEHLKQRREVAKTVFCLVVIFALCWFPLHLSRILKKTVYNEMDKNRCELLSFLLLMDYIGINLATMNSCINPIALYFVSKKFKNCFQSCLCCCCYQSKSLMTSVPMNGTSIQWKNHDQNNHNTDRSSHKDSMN
Description: (§1) Compounds that are potential endothelin antagonists are identified by testing their ability to compete with ^125I-labeled ET-1 for binding to human ETA receptors or ETB receptors present on isolated cell membranes. The effectiveness of the test compound as an antagonist or agonist of the biological tissue response of endothelin can also be assessed by measuring the effect on endothelin induced contraction of isolated rat thoracic aortic rings. The ability of the compounds to act as antagonists or agonists for ETB receptors can be assess by testing the ability of the compounds are to inhibit endothelin-1 induced prostacyclin release from cultured bovine aortic endothelial cells.
A. Endothelin Binding Inhibition—Binding Test #1: Inhibition of Binding to ETA Receptors
TE 671 cells (ATCC Accession No. HTB 139) express ETA receptors. These cells were grown to confluence in T-175 flasks. Cells from multiple flasks were collected by scraping, pooled and centrifuged for 10 min at 190×g. The cells were resuspended in phosphate buffered saline (PBS) containing 10 mM EDTA using a Tenbroeck homogenizer. The suspension was centrifuged at 4° C. at 57,800×g for 15 min, the pellet was resuspended in 5 ml of buffer A (5 mM HEPES buffer, pH 7.4 containing aprotinin (100 KIU/ml)) and then frozen and thawed once. 5 ml of Buffer B (5 mM HEPES Buffer, pH 7.4 containing 10 mM MnCl2 and 0.001% deoxyribonuclease Type 1) was added, the suspension mixed by inversion and then incubated at 37° C. for 30 minutes. The mixture was centrifuged at 57,800×g as described above, the pellet washed twice with buffer A and then resuspended in buffer C (30 mM HEPES buffer, pH 7.4 containing aprotinin (100 KIU/ml) to give a final protein concentration of 2 mg/ml and stored at −70° C. until use.
The membrane suspension was diluted with binding buffer (30 mM HEPES buffer, pH 7.4 containing 150 mM NaCl, 5mM MgCl2, 0.5% Bacitracin) to a concentration of 8 μg/50 μl. ^125I-endothelin-1 (3,000 cpm, […]) was added to 50 μL of either: (A) endothelin-1 (for non specific binding) to give a final concentration 80 nM); (B) binding buffer (for total binding); or (C) a test compound (final concentration 1 nM to 100 μM). The membrane suspension (50 μL), containing up to 8 μg of membrane protein, was added to each of (A), (B), or (C). Mixtures were shaken, and incubated at 4° C. for 16-18 hours, and then centrifuged at […] for 25 min at 2,500×g. Alternatively, the incubation was conducted at 24° C. […] This, must be kept in mind when comparing IC50 concentrations among compounds provided herein.
The supernatant, containing unbound radioactivity, was decanted and the pellet counted on a Genesys multiwell gamma counter. The degree of inhibition of binding (D) was calculated according to the following equation: [formula]
Each test was generally performed in triplicate.

human ETB receptor = target: T2, human ETB receptor (Homo sapiens, UniProt P24530); experiment: Binding Test #2: inhibition of 125I-ET-1 binding to ETB receptors (transfected COS7 cell membranes)
T2 construct: expressed in transfected cells; host or cells: COS7 cells
T2 sequence (P24530 27-442): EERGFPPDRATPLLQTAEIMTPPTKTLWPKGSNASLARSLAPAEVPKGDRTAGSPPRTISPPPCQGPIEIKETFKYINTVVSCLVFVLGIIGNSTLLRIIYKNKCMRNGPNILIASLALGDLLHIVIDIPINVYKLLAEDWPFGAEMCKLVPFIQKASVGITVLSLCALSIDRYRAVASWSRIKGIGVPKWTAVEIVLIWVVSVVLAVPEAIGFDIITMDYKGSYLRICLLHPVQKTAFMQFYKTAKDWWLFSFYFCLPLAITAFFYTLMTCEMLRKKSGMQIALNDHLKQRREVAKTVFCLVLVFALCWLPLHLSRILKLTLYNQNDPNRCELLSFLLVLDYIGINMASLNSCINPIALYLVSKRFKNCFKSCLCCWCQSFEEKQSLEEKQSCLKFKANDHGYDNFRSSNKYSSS
Description: as §1
B. Endothelin Binding Inhibition—Binding Test #2: Inhibition of Binding to ETB Receptors
COS7 cells were transfected with DNA encoding the ETB receptor, The resulting cells, which express the human ETB receptor, were grown to confluence in T-150 flasks. Membrane was prepared as described above. The binding assay was performed as described above using the membrane preparation diluted with binding buffer to a concentration of 1 μg/50 μl.
Briefly, the COS7 cells, described above, that had been transfected with DNA encoding the ETB receptor and express the human ETB receptor on their surfaces were grown to confluence in T-1 75 flasks. Cells from multiple flasks were collected by scraping, pooled and centrifuged for 10 min at 190×g. The cells were resuspended in phosphate buffered saline (PBS) containing 10 mM EDTA using a Tenbroeck homogenizer. The suspension was centrifuged at 4° C. 57,800 X g for 15 min, the pellet was resuspended in 5 ml of buffer A (5mM HEPES buffer, pH 7.4 containing aprotinin (100 KIU/ml)) and then frozen and thawed once. Five ml of Buffer B (5 mM HEPES Buffer, pH 7.4 containing 10 mM MnCl2 and 0.001% deoxyribonuclease Type 1) was added, the suspension mixed by inversion and then incubated at 37° C. for 30 minutes. The mixture was centrifuged at 57,800×g as described above, the pellet washed twice with buffer A and then resuspended in buffer C (30 mM HEPES buffer, pH 7.4 containing aprotinin (100 KIU/ml) to give a final protein concentration of 2 mg/ml.
The binding assay was performed as described above using the membrane preparation diluted to give 1 μg/50 μl of binding buffer.

[1] = Table 2, incubation at 4° C., read-out: ETB
[2] = Table 1, incubation at 4° C., read-out: ETB

| Structure (SMILES) | IC50 (human ETA receptors; Table 1, incubation at 4° C.) [µM] | IC50 (human ETB receptor; [2]) [µM] | further results |
| --- | --- | --- | --- |
| Cc1noc(NS(=O)(=O)c2cccc(-c3ccccc3)c2)c1C [N-(3,4-dimethyl-5-isoxazolyl)-3-biphenylsulfonamide] |  |  | IC50 (human ETA receptors; Table 2, incubation at 4° C.): > 0.03 µM; IC50 (human ETB receptor; [1]): 3.48 µM; IC50 (human ETB receptor; read-out: IC50 for ETB receptors): ~3.48 µM |
| COc1ccsc1S(=O)(=O)Nc1onc(C)c1C [N-(3,4-dimethyl-5-isoxazolyl)-3-methoxythiophene-2-sulfonamide] | 2.5 | 45.5 |  |
| Cc1noc(NS(=O)(=O)c2ccc(-c3ccccc3)cc2)c1C [N-(3,4-dimethyl-5-isoxazolyl)-4-biphenylsufonamide] |  |  | IC50 (human ETA receptors; Table 2, incubation at 4° C.): 9.9 ± 1.4 µM; IC50 (human ETA receptors; Table 2, † incubation at 24° C.): 6.3 µM; IC50 (human ETB receptor; [1]): 0.77 ± 0.32 µM; IC50 (human ETB receptor; Table 2, † incubation at 24° C., read-out: ETB): 0.15 µM |
| Cc1noc(NS(=O)(=O)c2cc3ccccc3s2)c1C [N-(3,4-dimethyl-5-isoxazolyl)benzo[b]thiophene-2-sulfonamide] | 7.22 | 11.1 |  |
| Cc1noc(NS(=O)(=O)c2cc3ccccc3o2)c1C [N-(3,4-dimethyl-5-isoxazolyl)benzofuran-2-sulfonamide] | 5.22 | 38.4 |  |
| Cc1noc(NS(=O)(=O)c2ccc(-c3ccccc3)s2)c1C [N-(3,4-dimethyl-5-isoxazolyl-5-phenylthiophen-2-sulfonamide] | 2.55 | 1.29 |  |
| Cc1noc(NS(=O)(=O)c2ccn(-c3ccc(C(C)C)cc3)c2)c1Br [N-(4-Bromo-3-methyl-5-isoxazolyl) 1-(4′-isopropylphenyl)pyrrole-3-sulfonamide] | 0.838 | 0.211 |  |
| Cc1noc(NS(=O)(=O)c2cccn2-c2ccc(C(C)C)cc2)c1Br [N-(4-Bromo-3-methyl-5-isoxazolyl)-1-(4′-isopropylphenyl)pyrrole-2-sulfonamide] | 11.4 | 0.166 |  |
| Cc1noc(NS(=O)(=O)c2cccn2-c2ccccc2)c1Br [N-(4-Bromo-3-methyl-5-isoxazolyl)-1-(phenyl)pyrrole-2-sulfonamide] | 18.1 | 8.7 |  |
| Cc1noc(NS(=O)(=O)c2cc(Cl)sc2Cl)c1Br [N-(4-Bromo-3-methyl-5-isoxazolyl)-2,5-dichlorothiophene-3-sulfonamide] | ~0.39 | 2.62 |  |
| Cc1cc(S(=O)(=O)Nc2onc(C)c2Br)c(C)s1 [N-(4-Bromo-3-methyl-5-isoxazolyl)-2,5-dimethylthiophene-3-sulfonamide] | 0.0956 | 7.8 |  |
| Cc1noc(NS(=O)(=O)c2ccsc2C(=O)NCc2ccccc2)c1Br [N-(4-Bromo-3-methyl-5-isoxazolyl)-2-(N-benzylaminocarbonyl)thiophene-3-sulfonamide] | 0.013 | 12.7 |  |
| Cc1noc(NS(=O)(=O)c2ccsc2C(=O)O)c1Br [N-(4-Bromo-3-methyl-5-isoxazolyl)-2-(carboxyl)thiophene-3-sulfonamide] | ~0.6 | ~67 |  |
| COc1ccccc1NC(=O)c1sccc1S(=O)(=O)Nc1onc(C)c1Br [N-(4-Bromo-3-methyl-5-isoxazolyl)-2-[N-(2-methoxyphenyl)aminocarbonyl]thiophene-3-sulfonamide] | 0.0116 | 13.2 |  |
| COc1cccc(NC(=O)c2sccc2S(=O)(=O)Nc2onc(C)c2Br)c1 [N-(4-Bromo-3-methyl-5-isoxazolyl)-2-[N-(3-methoxyphenyl)aminocarbonyl]thiophene-3-sulfonamide] | 0.003 | 5.86 |  |
| Cc1noc(NS(=O)(=O)c2ccsc2C(=O)Nc2ccc(-c3ccccc3)cc2)c1Br [N-(4-Bromo-3-methyl-5-isoxazolyl)-2-[N-(4-biphenyl)aminocarbonyl]thiophene-3-sulfonamide] | 0.0376 | 0.912 |  |
| CCc1ccc(NC(=O)c2sccc2S(=O)(=O)Nc2onc(C)c2Br)cc1 [N-(4-Bromo-3-methyl-5-isoxazolyl)-2-[N-(4-ethylphenyl)aminocarbonyl]thiophene-3-sulfonamide] | 0.0016 | 0.849 |  |
| COc1ccc(NC(=O)c2sccc2S(=O)(=O)Nc2onc(C)c2Br)cc1 [N-(4-Bromo-3-methyl-5-isoxazolyl)-2-[N-(4-methoxyphenyl)aminocarbonyl]thiophene-3-sulfonamide] | 0.002 | 2.12 |  |
